Laboratory results taken from patent publication US20240391954A1, “MC4R AGONIST PEPTIDES” (The Regents of the University of Michigan, priority 2021, published 2024).
Like-named read-outs stand apart in the source and are kept apart here. Positions of bridges follow the written chain, without caps; N, C: chain ends. Non-standard residues stand in square brackets, D forms with d. Residues, ends and D or L forms follow the SMILES beside them. dDip = N[C@@H](C(=O)O)C(c1ccccc1)c1ccccc1; Phe(4-Br) = N[C@@H](Cc1ccc(Br)cc1)C(=O)O; dPhe(4-Br) = N[C@H](Cc1ccc(Br)cc1)C(=O)O; dPhe(4-I) = N[C@H](Cc1ccc(I)cc1)C(=O)O; d2Nal = N[C@H](Cc1ccc2ccccc2c1)C(=O)O; d(hPhe) = N[C@H](CCc1ccccc1)C(=O)O; Tic = O=C(O)[C@@H]1Cc2ccccc2CN1; dTic = O=C(O)[C@H]1Cc2ccccc2CN1; Cit = NC(=O)NCCC[C@H](N)C(=O)O; Nle = CCCC[C@H](N)C(=O)O; Aib = CC(C)(N)C(=O)O

Columns and labels:
[1] = molecular target: T1, human MC3R (Homo sapiens, UniProt P41968); assay: split-luciferase cAMP sensor assay, agonist mode (measurement window 1), hMC3R; format: cell-based; settings: agonist mode, hMC3R stable cell line; for Emax: read-out: MC3R cAMP % max activation; for EC50: read-out: MC3R cAMP EC50
T1 construct: expressed in transfected cells; host or cells: HEK-293 cells stably expressing the GScAMP22F split-luciferase cAMP sensor (parent reporter line from Promega); MC3R clone generated in-house, G418 selection
T1 sequence (P41968 whole entry): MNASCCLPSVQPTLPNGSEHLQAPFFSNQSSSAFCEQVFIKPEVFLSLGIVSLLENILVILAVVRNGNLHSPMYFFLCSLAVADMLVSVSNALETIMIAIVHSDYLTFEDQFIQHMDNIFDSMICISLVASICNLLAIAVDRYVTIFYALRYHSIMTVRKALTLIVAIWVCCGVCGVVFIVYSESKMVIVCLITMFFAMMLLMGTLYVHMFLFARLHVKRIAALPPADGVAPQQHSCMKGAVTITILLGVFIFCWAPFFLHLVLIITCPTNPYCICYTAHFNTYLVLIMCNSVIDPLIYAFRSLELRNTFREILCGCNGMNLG
In short: (§1)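 EC50 values come from a four-parameter variable-slope fit of luminescence in measurement window 1, capturing direct peptide effects on receptor-expressing cells with a cAMP22f luciferase sensor. Cells were preloaded with 4% D-luciferin, serum-free medium; 20 μM forskolin normalized for cell number and transducer efficiency.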

[2] = molecular target: T2, human MC4R (Homo sapiens, UniProt P32245); assay: split-luciferase cAMP sensor assay, agonist mode (measurement window 1), hMC4R; format: cell-based; settings: for Emax: read-out: MC4R cAMP % max activation; for EC50: read-out: MC4R cAMP EC50
T2 construct: host or cells: HEK-293 cells stably expressing the GScAMP22F split-luciferase cAMP sensor and hMC4R, G418 selection
T2 sequence (P32245 whole entry): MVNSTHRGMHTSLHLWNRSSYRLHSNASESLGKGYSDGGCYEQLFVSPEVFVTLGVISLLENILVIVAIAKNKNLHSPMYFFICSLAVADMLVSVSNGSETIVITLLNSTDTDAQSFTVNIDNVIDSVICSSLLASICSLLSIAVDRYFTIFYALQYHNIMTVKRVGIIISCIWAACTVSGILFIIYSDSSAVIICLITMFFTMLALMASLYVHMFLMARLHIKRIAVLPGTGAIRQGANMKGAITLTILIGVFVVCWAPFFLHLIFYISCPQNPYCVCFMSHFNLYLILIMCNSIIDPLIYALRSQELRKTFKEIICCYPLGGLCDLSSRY
In short: as §1

[3] = agonist mode, hMC4R stable cell line

Compound	Emax [1]	MC4R selectivity vs MC1R [2]	MC4R selectivity vs MC3R [2]	Emax [2, 3]	EC50 [1]	EC50 ([2]; agonist mode, hMC4R stable cell line, unit inferred)	EC50 [2, 3]	MC3R cAMP % max activation [1]	MC4R cAMP % max activation [2, 3]
CC(=O)N[C@@H](CCCNC(=N)N)C(=O)N[C@H]1CSSC[C@@H](C(N)=O)NC(=O)[C@@H]2Cc3ccccc3CN2C(=O)[C@H](CCCNC(=N)N)NC(=O)[C@@H](Cc2ccc(Br)cc2)NC(=O)[C@H](CCCNC(=N)N)NC(=O)[C@@H](C)NC1=O [CTX-1259, Arg-cyclo(Cys-D-Ala-Arg-D-Phe(4-Br)-Arg-Tic-Cys)] (Ac-RC[dA]R[dPhe(4-Br)]R[Tic]C-NH2; disulfide 2-8 (inferred))	27%	0.01	0.12	70%					
COc1ccc(C[C@H]2NC(=O)[C@H](CCCNC(N)=O)NC(=O)C(C)(C)NC(=O)[C@@H](NC(=O)[C@H](CCCNC(=N)N)NC(C)=O)CSSC[C@@H](C(N)=O)NC(=O)[C@@H](Cc3c[nH]c4ccccc34)NC(=O)[C@H](CCCNC(=N)N)NC2=O)cc1 [CTX-1600, Arg-cyclo(Cys-Aib-Cit-D-Tyr(4-OMe)-Arg-D-Trp-Cys)] (Ac-RC[Aib][Cit][dY](Me)R[dW]C-NH2; disulfide 2-8)		>70	>70	58%	> 10 µM				
CC(=O)N[C@@H](CCCNC(=N)N)C(=O)N[C@H]1CSSC[C@@H](C(N)=O)NC(=O)[C@H](Cc2c[nH]c3ccccc23)NC(=O)[C@H](CCCNC(=N)N)NC(=O)[C@@H](Cc2ccc(Br)cc2)NC(=O)[C@H](Cc2c[nH]cn2)NC(=O)[C@@H](C)NC1=O [CTX-2206, Arg-cyclo(Cys-D-Ala-His-D-Phe(4-Br)-Arg-Trp-Cys)]	28%		7.35	98%	0.022 µM	0.003 µM			
CC(=O)N[C@@H](CCCNC(=N)N)C(=O)N[C@H]1CSSC[C@@H](C(N)=O)NC(=O)[C@@H](Cc2c[nH]c3ccccc23)NC(=O)[C@H](CCCNC(=N)N)NC(=O)[C@@H](CCc2ccccc2)NC(=O)[C@H](CCCNC(=N)N)NC(=O)[C@@H](C)NC1=O [CTX-1277, Arg-cyclo(Cys-D-Ala-Arg-D-Hph-Arg-D-Trp-Cys)] (Ac-RC[dA]R[d(hPhe)]R[dW]C-NH2; disulfide 2-8 (inferred))	5.2%	0.05	0.1	29%					
CC(=O)N[C@@H](CCCNC(=N)N)C(=O)N[C@H]1CSSC[C@@H](C(N)=O)NC(=O)[C@H](Cc2c[nH]c3ccccc23)NC(=O)[C@H](CCCNC(=N)N)NC(=O)[C@H](Cc2ccc(Br)cc2)NC(=O)[C@H](CCCNC(=N)N)NC(=O)[C@@H](C)NC1=O [CTX-1212] (Ac-RC[dA]R[Phe(4-Br)]RWC-NH2; disulfide 2-8)	0.1%	0.07	0.07	55%	0.028 µM				
CC(=O)N[C@@H](CCCNC(=N)N)C(=O)N[C@H]1CSSC[C@@H](C(N)=O)NC(=O)[C@@H](Cc2c[nH]c3ccccc23)NC(=O)[C@H](CCCNC(=N)N)NC(=O)[C@@H](C(c2ccccc2)c2ccccc2)NC(=O)[C@H](CCCNC(=N)N)NC(=O)[C@@H](C)NC1=O [CTX-1280, Arg-cyclo(Cys-D-Ala-Arg-D-Dip-Arg-D-Trp-Cys)] (Ac-RC[dA]R[dDip]R[dW]C-NH2; disulfide 2-8 (inferred))	2.6%	0.1	1.24	4%					
CC(=O)N[C@@H](CCCNC(=N)N)C(=O)N[C@H]1CSSC[C@@H](C(N)=O)NC(=O)[C@@H](Cc2c[nH]c3ccccc23)NC(=O)[C@H](CCCNC(=N)N)NC(=O)[C@H](Cc2ccc(Br)cc2)NC(=O)[C@H](CCCNC(=N)N)NC(=O)[C@@H](C)NC1=O [CTX-1215, Arg-cyclo(Cys-D-Ala-Arg-Phe(4-Br)-Arg-D-Trp-Cys)] (Ac-RC[dA]R[Phe(4-Br)]R[dW]C-NH2; disulfide 2-8 (inferred))	2.1%	0.07	0.05	56%	0.027 µM				
CC(=O)N[C@@H](CCCNC(=N)N)C(=O)N[C@H]1CSSC[C@@H](C(=O)N[C@@H](CCCCN)C(=O)N2CCC[C@H]2C(N)=O)NC(=O)[C@@H](Cc2c[nH]c3ccccc23)NC(=O)[C@H](CCCNC(=N)N)NC(=O)[C@@H](Cc2ccc(Br)cc2)NC(=O)[C@H](CCCNC(=N)N)NC(=O)[C@@H](C)NC1=O [CTX-1217, Arg-cyclo(Cys-D-Ala-Arg-D-Phe(4-Br)-Arg-D-Trp-Cys)-Lys-Pro] (Ac-RC[dA]R[dPhe(4-Br)]R[dW]CKP-NH2; disulfide 2-8)	13%	1.12	2.73	69%	0.004 µM				
CCCC[C@H](NC(C)=O)C(=O)N[C@H]1CSSC[C@@H](C(N)=O)NC(=O)[C@@H](Cc2c[nH]c3ccccc23)NC(=O)[C@H](CCCNC(=N)N)NC(=O)[C@@H](Cc2ccc(I)cc2)NC(=O)[C@H](Cc2c[nH]cn2)NC1=O [CTX-1234, Nle-cyclo(Cys-His-D-Phe(4-I)-Arg-D-Trp-Cys)] (Ac-[Nle]CH[dPhe(4-I)]R[dW]C-NH2; disulfide 2-7 (inferred))	18%	0.2	1.32	16%			0.0026 µM		
CC(=O)N[C@@H](CCCNC(=N)N)C(=O)N[C@H]1CSSC[C@@H](C(N)=O)NC(=O)[C@@H](Cc2c[nH]c3ccccc23)NC(=O)[C@H](CCCNC(N)=O)NC(=O)[C@@H](Cc2ccccc2)NC(=O)[C@H](CCCNC(=N)N)NC(=O)C(C)(C)NC1=O [CTX-1271, Arg-cyclo(Cys-Aib-Arg-D-Phe-Cit-D-Trp-Cys)] (Ac-RC[Aib]R[dF][Cit][dW]C-NH2; disulfide 2-8 (inferred))	16%	2.9	1.63	95%			0.072 µM		
CC(=O)N[C@@H](CCCNC(=N)N)C(=O)N[C@H]1CSSC[C@@H](C(N)=O)NC(=O)[C@@H](Cc2c[nH]c3ccccc23)NC(=O)[C@H](CCCNC(N)=O)NC(=O)[C@@H](Cc2ccc(Br)cc2)NC(=O)[C@H](CCCNC(=N)N)NC(=O)[C@@H](C)NC1=O [CTX-1253, Arg-cyclo(Cys-D-Ala-Arg-D-Phe(4-Br)-Cit-D-Trp-Cys)] (Ac-RC[dA]R[dPhe(4-Br)][Cit][dW]C-NH2; disulfide 2-8 (inferred))	9.2%	0.57	0.53	58%	0.004 µM				
CC(=O)N[C@@H](CCCNC(=N)N)C(=O)N[C@H]1CSSC[C@@H](C(N)=O)NC(=O)[C@@H](Cc2c[nH]c3ccccc23)NC(=O)[C@H](CCCNC(=N)N)NC(=O)[C@@H](CCc2ccccc2)NC(=O)[C@H](CCCNC(=N)N)NC(=O)[C@@H](C)NC1=O [CTX-1239, Arg-cyclo(Cys-D-Ala-Arg-D-Hph-Arg-D-Trp-Cys)] (Ac-RC[dA]R[d(hPhe)]R[dW]C-NH2; disulfide 2-8)		0.1	0.3					(7.9%)	(28%)
CC(=O)N[C@@H](CCCNC(=N)N)C(=O)N[C@H]1CSSC[C@@H](C(N)=O)NC(=O)[C@@H](Cc2c[nH]c3ccccc23)NC(=O)[C@H](CCCNC(=N)N)NC(=O)[C@H]2Cc3ccccc3CN2C(=O)[C@H](CCCNC(=N)N)NC(=O)[C@@H](C)NC1=O [CTX-1273, Arg-cyclo(Cys-D-Ala-Arg-D-Tic-Arg-D-Trp-Cys)] (Ac-RC[dA]R[dTic]R[dW]C-NH2; disulfide 2-8)	3.7%	0.05	0.64	32%					
CC(=O)N[C@@H](CCCNC(=N)N)C(=O)N[C@H]1CSSC[C@@H](C(N)=O)NC(=O)[C@H]2Cc3ccccc3CN2C(=O)[C@H](CCCNC(=N)N)NC(=O)[C@@H](Cc2ccc(Br)cc2)NC(=O)[C@H](CCCNC(=N)N)NC(=O)[C@@H](C)NC1=O [CTX-1256, Arg-cyclo(Cys-D-Ala-Arg-D-Phe(4-Br)-Arg-D-Tic-Cys)] (Ac-RC[dA]R[dPhe(4-Br)]R[dTic]C-NH2; disulfide 2-8 (inferred))	17%	0.003	0.08	29%					
CC(=O)N[C@@H](CCCNC(=N)N)C(=O)N[C@H]1CSSC[C@@H](C(N)=O)NC(=O)[C@@H](Cc2ccc3ccccc3c2)NC(=O)[C@H](CCCNC(=N)N)NC(=O)[C@@H](Cc2ccc(Br)cc2)NC(=O)[C@H](CCCNC(=N)N)NC(=O)[C@@H](C)NC1=O [CTX-1254, Arg-cyclo(Cys-D-Ala-Arg-D-Phe(4-Br)-Arg-D-Nal(2′)-Cys)] (Ac-RC[dA]R[dPhe(4-Br)]R[d2Nal]C-NH2; disulfide 2-8)	5.5%	0.26	2.19	22%					
